The values below come from patent US20120321584A1, “PROCESSES FOR PREPARING AMINE SALTS OF KMUP-3 AND USE THEREOF” (KAOHSIUNG MEDICAL UNIVERSITY, priority 2011, published 2012).

Structures are written as SMILES. Where a name gives a salt, the structure may show the parent alone.

Holding throughout (assay type): cell-based
Common to all, as to details: KMUPs salts 10 μM, 120 min; vehicle (without treatment) = 100 %

One assay relates to eNOS. Kind of assay: Protein expression of eNOS by optical density after KMUPs salts (Table 2). As to the method: (§1) Protein extraction and Western blotting analysis. Briefly, after incubation with test agents in an organ bath, isolated beating atrium was frozen and pulverized to a fine powder at the temperature of liquid nitrogen. Atrium powders were then homogenized in protein extraction reagent (Pierce Biotechnology, Inc., Rockford, Ill.) by sonication. The samples were sonicated 10 sec three times and centrifuged at 13,000 rpm at 4° C. for 30 min. The protein concentrations of supernatants were determined by using bovine serum albumin as the standard. The cell extracts were then boiled in a ratio of 4:1 with sample buffer (Tris 100 mM, pH 6.8; glycerol 20%, Sodium dodecyl sulfate (SDS) 4% and bromophenol blue 0.2%). Electrophoresis was performed using 10% SDS-PAGE and transferred to nitrocellulose membranes (Millipore Corp., Billerica, Mass.). The membrane was blocked with Tris-buffered saline (TBS; 20 mM Tris and 137 mM NaCl, pH 7.6) containing 0.1% Tween 20 (TTBS) and 5% nonfat milk at room temperature for 1 h, washed with TTBS, and then incubated overnight at 4° C. in the appropriate primary antibody for PKARI, RhoA, ROCKII, p-CIP-17, CPI-17 and PKG1α1β. […] The intensity of the bands was measured by densitometry. eNOS or phosphorylated eNOS were extracted from cell culture of neonatal myocytes, PA ring and aortic ring (2-3 mm) of rats and measured by Western blotting analysis.

In the next assay the test system is PDE-5. Kind of assay: Protein expression of PDE-5 by optical density after KMUPs salts (Table 2). As to the method: as §1
The next assay concerns ROCKII. Kind of assay: Protein expression of ROCKII by optical density after KMUPs salts (Table 2). How it is done:
as §1

Another assay concerns PDE-4. The experiment in a line: Protein expression of PDE-4 by optical density after KMUPs salts (Table 2). As to the method:
as §1

A further assay deals with PDE-3. Kind of assay: Protein expression of PDE-3 by optical density after KMUPs salts (Table 2). How it is done: as §1

On to `Cn1c(=O)c2c(ncn2CCN2CCN(c3ccc([N+](=O)[O-])cc3)CC2)n(C)c1=O` [KMUP-3-HCl], for which, in the assay with eNOS, the “eNOS protein expression, optical density (%)” value came out at 138 ± 5.2%. The “PDE-5 protein expression, optical density (%)” value in the assay on PDE-5 amounted to 48 ± 1.9%. For the same compound, in the assay with ROCKII, the “ROCKII protein expression, optical density (%)” value came to 42 ± 2.2%. In the assay on PDE-4, the “PDE-4 protein expression, optical density (%)” value stood at 48 ± 2.1%. Besides, the “PDE-3 protein expression, optical density (%)” value with PDE-3 amounted to 55 ± 2.5%.
